From patent publication US20100286186A1, “NOVEL DICARBOXYLIC ACID LINKED AMINO ACID AND PEPTIDE PRODRUGS OF OPIOIDS AND USES THEREOF” (Shire LLC, priority 2009, published 2010)

Assays:
[1] = Plasma pharmacokinetics of meptazinol dicarboxylate linked prodrugs after oral gavage to cynomolgus monkeys; assay type: in vivo, cynomolgus monkey; details: cynomolgus monkey, oral gavage of prodrug, 1 mg meptazinol base equivalents/kg, prodrug level, BLQ = below 0.5 ng/mL
[2] = Plasma pharmacokinetics of meptazinol dicarboxylate linked prodrugs after oral gavage to dogs; assay type: in vivo, dog; details: 1 mg meptazinol base equivalents/kg
[3] = Comparative oral bioavailability of oxycodone from various dicarboxylate bridged amino acid prodrugs in dogs (nine-way crossover); assay type: in vivo, dog; details: 1 mg/kg oxycodone free base; for Cmax of oxycodone / T50% Cmax of oxycodone / AUC0-t of oxycodone: mean (±sd); for AUC0-t of oxycodone: t = last quantifiable time point
[4] = In vitro stability of dicarboxylate amino acid ester prodrugs in simulated gastric and intestinal juice, distilled water and pH 10 buffer (HPLC); details: for Simulated gastric fluid (pH 1.1): % remaining after 2 h/37° C.: pH 1.1, 2 h; for Distilled water (pH 5.9): % remaining after 2 h/20° C.: pH 5.9, 2 h; for Simulated intestinal fluid (pH 6.8): % remaining after 2 h/37° C.: pH 6.8, 2 h; for pH 10.0 buffer: % remaining after 2 h/20° C.: pH 10.0, 2 h

With `CCC1(c2cccc(OC(=O)CC(C)(C)CC(=O)N[C@H](C(=O)O)C(C)C)c2)CCCCN(C)C1` (stereo partly drawn) [Meptazinol-[3,3-dimethyl-glutaryl-(S)-valine] ester] the Cmax ([1]; plasma, read-out: Monkey Cmax (plasma prodrug levels, in brackets)) was 43 ng/mL, the Cmax ([2]; beagle, plasma, dog, oral gavage of prodrug, prodrug level, BLQ = below 0.5 ng/mL, read-out: Dog Cmax (plasma prodrug levels, in brackets)) was 116 ng/mL and the “systemic levels of the prodrug” value ([2]; oral gavage) was “good systemic levels of the prodrug”.
With `CCC1(c2cccc(OC(=O)/C=C/C(=O)N[C@H](C(=O)O)C(C)C)c2)CCCCN(C)C1` (stereo partly drawn) [Meptazinol-[fumaryl-(S)-valine] ester] the “Monkey Cmax (plasma prodrug levels, in brackets)” value [1] was “BLQ” and the “Dog Cmax (plasma prodrug levels, in brackets)” value ([2]; dog, oral gavage of prodrug, prodrug level, BLQ = below 0.5 ng/mL) was “BLQ”.
With `COc1ccc2c3c1O[C@H]1C(OC(=O)CCC(=O)N4CCC[C@H]4C(=O)O)=CC[C@@]4(O)[C@@H](C2)N(C)CC[C@]314` [Oxycodone succinyl proline ester] the “F % (absolute oral bioavailability of oxycodone)” value [3] was 20.8%, the Cmax of oxycodone [3] was 20.1 (±4.60) ng/mL and the “T50% Cmax of oxycodone” value [3] was 3.4 (±0.9) h. For the same molecule, the AUC0-t of oxycodone [3] was 75.2 (±13.7) h. * ng/mL, the “Simulated gastric fluid (pH 1.1): % remaining after 2 h/37° C.” value [4] was 98% and the “Distilled water (pH 5.9): % remaining after 2 h/20° C.” value (from here on “Distilled water (pH 5.9): % remaining”) [4] was 100%. The “Simulated intestinal fluid (pH 6.8): % remaining after 2 h/37° C.” value [4] was 96% and the “pH 10.0 buffer: % remaining after 2 h/20° C.” value (“pH 10.0 buffer: % remaining” below) [4] was 80%.
With `CC[C@H](C)[C@H](NC(=O)CCCC(=O)OC1=CC[C@@]2(O)[C@H]3Cc4ccc(OC)c5c4[C@@]2(CCN3C)[C@H]1O5)C(=O)O` [Oxycodone-Glutaryl-Ile Enol Ester, oxycodone-[glutaryl-(S)-isoleucine]enol ester] the “F % (absolute oral bioavailability of oxycodone)” value [3] was 37.4%, the Cmax of oxycodone [3] was 46.8 (±15.0) ng/mL and the “T50% Cmax of oxycodone” value [3] was 2.8 (±0.2) h. For the same molecule, the AUC0-t of oxycodone [3] was 135.7 (±27.9) h. * ng/mL, the “Simulated gastric fluid (pH 1.1): % remaining after 2 h/37° C.” value [4] was 98% and the “Distilled water (pH 5.9): % remaining” value [4] was 100%. The “Simulated intestinal fluid (pH 6.8): % remaining after 2 h/37° C.” value [4] was 80% and the “pH 10.0 buffer: % remaining” value [4] was 80%.
With `COc1ccc2c3c1O[C@H]1C(OC(=O)CCCC(=O)N[C@H](C(=O)O)C(C)C)=CC[C@@]4(O)[C@@H](C2)N(C)CC[C@]314` [Oxycodone-Glutaryl-Val Enol Ester, oxycodone-[glutaryl-(S)-valine] enol ester] the “T50% Cmax of oxycodone” value [3] was 2.9 (±0.3) h, the “Simulated gastric fluid (pH 1.1): % remaining after 2 h/37° C.” value [4] was 98% and the “Distilled water (pH 5.9): % remaining” value [4] was 100%. The “Simulated intestinal fluid (pH 6.8): % remaining after 2 h/37° C.” value [4] was 87% and the “pH 10.0 buffer: % remaining” value [4] was 75%.
For `CC[C@H](C)[C@H](NC(=O)CCC(=O)OC1=CC[C@@]2(O)[C@H]3Cc4ccc(OC)c5c4[C@@]2(CCN3C)[C@H]1O5)C(=O)O` [Oxycodone-Succinyl-Ile Enol Ester, oxycodone-[succinyl-(S)-isoleucine] enol ester], the “F % (absolute oral bioavailability of oxycodone)” value [3] was 36.0%, the Cmax of oxycodone [3] was 57.9 (±8.7) ng/mL and the “T50% Cmax of oxycodone” value [3] was 1.6 (±0.4) h. For the same molecule, the AUC0-t of oxycodone [3] was 130.6 (±25.6) h. * ng/mL, the “Simulated gastric fluid (pH 1.1): % remaining after 2 h/37° C.” value [4] was 98% and the “Distilled water (pH 5.9): % remaining” value [4] was 100%. For the same molecule, the “Simulated intestinal fluid (pH 6.8): % remaining after 2 h/37° C.” value [4] was 91% and the “pH 10.0 buffer: % remaining” value [4] was 66%.
In the case of `COc1ccc2c3c1OC1C(OC(=O)CCC(=O)N[C@@H](CC(C)C)C(=O)O)=CC[C@@]4(O)[C@@H](C2)N(C)CC[C@]314` (stereo partly drawn) [Oxycodone-Succinyl-Leu Enol Ester, oxycodone-[succinyl-(S)-leucine]enol ester], the “F % (absolute oral bioavailability of oxycodone)” value [3] is reported as 39.3%, the Cmax of oxycodone [3] is reported as 60.9 (±15.0) ng/mL and the “T50% Cmax of oxycodone” value [3] is reported as 1.9 (±0.2) h. The AUC0-t of oxycodone [3] was 142.5 (±28.4) h. * ng/mL, the “Simulated gastric fluid (pH 1.1): % remaining after 2 h/37° C.” value [4] was 98% and the “Distilled water (pH 5.9): % remaining” value [4] was 100%. The “Simulated intestinal fluid (pH 6.8): % remaining after 2 h/37° C.” value [4] was 78% and the “pH 10.0 buffer: % remaining” value [4] was 68%.
In the case of `COc1ccc2c3c1OC1C(OC(=O)CCC(=O)N[C@@H](CCSC)C(=O)O)=CC[C@@]4(O)[C@@H](C2)N(C)CC[C@]314` (stereo partly drawn) [Oxycodone-Succinyl-Met Enol Ester, oxycodone-[succinyl-(S)-methionine]enol ester], the “F % (absolute oral bioavailability of oxycodone)” value [3] is reported as 49.8%, the Cmax of oxycodone [3] is reported as 68.3 (±21.1) ng/mL and the “T50% Cmax of oxycodone” value [3] is reported as 2.3 (±0.8) h. For the same molecule, the AUC0-t of oxycodone [3] was 180.6 (±37.7) h. * ng/mL, the “Simulated gastric fluid (pH 1.1): % remaining after 2 h/37° C.” value [4] was 99% and the “Distilled water (pH 5.9): % remaining” value [4] was 100%. For the same molecule, the “Simulated intestinal fluid (pH 6.8): % remaining after 2 h/37° C.” value [4] was 84% and the “pH 10.0 buffer: % remaining” value [4] was 58%.
In the case of `COc1ccc2c3c1O[C@H]1C(OC(=O)CCC(=O)N[C@@H](Cc4ccccc4)C(=O)O)=CC[C@@]4(O)[C@@H](C2)N(C)CC[C@]314` [Oxycodone-Succinyl-Phe Enol Ester, oxycodone-[succinyl-(S)-phenylalanine]enol ester], the “Simulated gastric fluid (pH 1.1): % remaining after 2 h/37° C.” value [4] is reported as 99%, the “Distilled water (pH 5.9): % remaining” value [4] is reported as 100% and the “Simulated intestinal fluid (pH 6.8): % remaining after 2 h/37° C.” value [4] is reported as 3%. The “pH 10.0 buffer: % remaining” value [4] was 65%.
